The results in this text go back to patent US20240116985A1, “STAPLED PEPTIDES AND METHODS THEREOF” (priority 2020, published 2024).

Converted amounts (≈) assume the structure as drawn. Read-outs that look alike come from different tables or passages of the source.

A word on the Solubility: it is how much of the substance goes into solution per volume. Low values mean a poorly soluble substance, high ones a readily soluble substance. In general, chromatographic logD refers to a lipophilicity value derived from retention on a column.

Data set [1] can be described thus: CHI Log D procedure. Type of data set: physicochemical.
Data set [2] in a line: Solubility in PBS. Type of data set: physicochemical. The essentials: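 HPLC quantitation of peptide remaining in the PBS supernatant after ultracentrifugation, referenced to a 50 μM solution in DMSO.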
For data set [3], the target named is T1, full-length beta-Catenin (Uniprot ID P35222) (Homo sapiens, UniProt P35222).
T1 construct: 10 nM full-length beta-Catenin (Uniprot ID P35222)
T1 sequence (P35222 1-781): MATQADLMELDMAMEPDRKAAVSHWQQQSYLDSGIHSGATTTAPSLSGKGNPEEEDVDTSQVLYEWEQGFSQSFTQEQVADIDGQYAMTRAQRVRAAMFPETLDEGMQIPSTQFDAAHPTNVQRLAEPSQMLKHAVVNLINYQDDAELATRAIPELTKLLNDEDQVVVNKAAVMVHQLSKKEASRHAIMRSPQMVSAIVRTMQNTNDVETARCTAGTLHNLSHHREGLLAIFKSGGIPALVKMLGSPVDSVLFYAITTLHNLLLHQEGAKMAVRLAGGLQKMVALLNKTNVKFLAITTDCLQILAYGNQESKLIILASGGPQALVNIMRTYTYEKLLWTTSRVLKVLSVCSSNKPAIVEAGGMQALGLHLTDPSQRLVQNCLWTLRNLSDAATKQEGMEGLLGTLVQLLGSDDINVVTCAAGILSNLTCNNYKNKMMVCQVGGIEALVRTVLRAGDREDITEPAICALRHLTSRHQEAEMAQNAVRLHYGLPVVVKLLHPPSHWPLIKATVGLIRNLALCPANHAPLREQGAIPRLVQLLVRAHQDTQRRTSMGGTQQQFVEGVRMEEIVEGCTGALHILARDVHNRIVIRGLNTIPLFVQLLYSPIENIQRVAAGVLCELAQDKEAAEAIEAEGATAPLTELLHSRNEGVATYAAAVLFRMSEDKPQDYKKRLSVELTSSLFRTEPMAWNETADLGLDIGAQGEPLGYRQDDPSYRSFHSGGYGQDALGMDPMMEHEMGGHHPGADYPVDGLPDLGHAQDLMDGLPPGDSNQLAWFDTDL
Briefly: Fluorescence polarization IC50 (beta-catenin / 5FAM-TCF4 10-53 competition). It counts as binding. A general note: Polarisation of emitted light reports the rotation of a fluorescent probe.

The mark [4] stands for this setting: Table E2-1, read-out: beta-Catenin FP IC50.
The mark [5] stands for this setting: fluorescence polarization, beta-catenin, read-out: FP EC50.

For the compound `CC(=O)N1CCC[C@]12CC=CCCCC1(CCCC=CCCCCCC[C@@](C)(C(=O)N[C@@H](Cc3ccccc3)C(=O)N[C@@H](Cc3csc4ccccc34)C(=O)N[C@@H](CCC(N)=O)C(N)=O)NC(=O)[C@H](C(C)C)NC(=O)[C@H](Cc3ccccc3)NC(=O)[C@H](C)NC(=O)[C@H](C)NC(=O)[C@H](CC(=O)O)NC(=O)[C@H](CC(=O)O)NC1=O)NC(=O)[C@H](CCC(N)=O)NC(=O)[C@H](CC(=O)O)NC2=O` (stereo partly drawn) [I-346, Ac-PL3-Asp-Gln-B5-Asp-Asp-Ala-Ala-Phe-Val-S8-Phe-BztA-Gln-NH2], the “CHI Log D” value in data set [1] (pH 7.4) was found to be 1.943. The “Solubility” value in data set [2] worked out at 44 µM (≈ 81.6 µg/mL). In addition, the IC50 in data set [3] (setting [4]) and in data set [3] (setting [5]) was 180 nM each time.
Turning to `CC(=O)N1CCC[C@]12CC=CCCCC1(CCCC=CCCCCCC[C@@](C)(C(=O)N[C@@H](Cc3ccccc3)C(=O)N[C@@H](Cc3csc4ccccc34)C(=O)N[C@@H](CCC(N)=O)C(N)=O)NC(=O)[C@H](C(C)C)NC(=O)[C@H](Cc3ccccc3)NC(=O)[C@H](C)NC(=O)[C@H](C)NC(=O)[C@H](CC(=O)O)NC(=O)[C@H](CC(=O)O)NC1=O)NC(=O)[C@H](CCC(N)=O)NC(=O)[C@H](CC(=O)O)NC2=O` (stereo partly drawn) [I-347, Ac-PL3-Asp-Gln-B5-Asp-Asp-Ala-Ala-Phe-Val-S8-Phe-BztA-Gln-NH2], the “CHI Log D” value in data set [1] (pH 7.4) came to 1.956. Moreover, in data set [2], the “Solubility” value is 50 µM (≈ 92.8 µg/mL). Besides, the IC50 in data set [3] (setting [4]) and in data set [3] (setting [5]) was 121 nM throughout.
`CC(=O)N1CCC[C@]12CC=CCCCC1(CCCC=CCCCCCC[C@@](C)(C(=O)N[C@@H](Cc3ccccc3)C(=O)N[C@@H](Cc3c[nH]c4ccccc34)C(=O)N[C@@H](CCC(N)=O)C(N)=O)NC(=O)[C@H](C(C)C)NC(=O)[C@H](Cc3ccccc3)NC(=O)[C@H](C)NC(=O)[C@H](C)NC(=O)[C@H](C)NC(=O)[C@H](CC(=O)O)NC1=O)NC(=O)[C@H](C)NC(=O)[C@H](CC(=O)O)NC2=O` (stereo partly drawn) [I-352, Ac-PL3-Asp-Ala-B5-Asp-Ala-Ala-Ala-Phe-Val-S8-Phe-Trp-Gln-NH2] returned a chromatographic logD in data set [1] (pH 7.4) of 2.51. Moreover, the “Solubility” value in data set [2] worked out at 10 µM (≈ 17.4 µg/mL). For the same compound, in data set [3] (beta-Catenin FP IC50 (nM), Table E2-1), the IC50 was 5000 nM.
For `CC(=O)N1CCC[C@]12CC=CCCCC1(CCCC=CCCCCCC[C@@](C)(C(=O)N[C@@H](Cc3ccc(C#N)cc3)C(=O)N[C@@H](Cc3csc4ccccc34)C(=O)N[C@@H](CCC(N)=O)C(N)=O)NC(=O)[C@H](C(C)C)NC(=O)[C@H](Cc3ccccc3)NC(=O)[C@H](C)NC(=O)[C@H](C)NC(=O)[C@H](CC(=O)O)NC(=O)[C@H](CC(=O)O)NC1=O)NC(=O)[C@H](C)NC(=O)[C@H](CC(=O)O)NC2=O` (stereo partly drawn) [I-359, Ac-PL3-Asp-Ala-B5-Asp-Asp-Ala-Ala-Phe-Val-S8-4CNF-BztA-Gln-NH2], the chromatographic logD in data set [1] (pH 7.4, CHI Log D) turned out to be 2.06. This compound also gave a Solubility in data set [2] (Solubility (uM)) of 30 µM (≈ 54.7 µg/mL). The IC50 in data set [3] (setting [4]) was found to be 5000 nM.
With `CC(=O)N1CCC[C@]12CC=CCCCC1(CCCC=CCCCCCC[C@@](C)(C(=O)N[C@@H](Cc3ccccc3)C(=O)N[C@@H](Cc3csc4ccccc34)C(=O)N[C@@H](Cc3c[nH]cn3)C(N)=O)NC(=O)[C@H](CCC(N)=O)NC(=O)[C@H](Cc3ccccc3)NC(=O)[C@H](C)NC(=O)[C@H](C)NC(=O)[C@H](CC(=O)O)NC(=O)[C@H](CC(=O)O)NC1=O)NC(=O)[C@H](C)NC(=O)[C@H](CC(=O)O)NC2=O` (stereo partly drawn) [I-360, Ac-PL3-Asp-Ala-B5-Asp-Asp-Ala-Ala-Phe-Gln-S8-Phe-BztA-His-NH2], the “CHI Log D” value in data set [1] (pH 7.4) was 2.017. The “Solubility” value in data set [2] worked out at 44 µM (≈ 80.8 µg/mL). Besides, the IC50 in data set [3] (setting [4]) and in data set [3] (setting [5]) was 146 nM throughout.
In the case of `CC(=O)N1CCC[C@]12CC=CCCCC1(CCCC=CCCCCCC[C@@](C)(C(=O)N[C@@H](Cc3ccccc3)C(=O)N[C@@H](Cc3csc4ccccc34)C(=O)N[C@@H](Cc3c[nH]cn3)C(N)=O)NC(=O)[C@H](CCC(N)=O)NC(=O)[C@H](Cc3ccccc3)NC(=O)[C@H](C)NC(=O)[C@H](C)NC(=O)[C@H](CC(=O)O)NC(=O)[C@H](CC(=O)O)NC1=O)NC(=O)[C@H](C)NC(=O)[C@H](CC(=O)O)NC2=O` (stereo partly drawn) [I-361, Ac-PL3-Asp-Ala-B5-Asp-Asp-Ala-Ala-Phe-Gln-S8-Phe-BztA-His-NH2], in data set [1] (pH 7.4), the “CHI Log D” value turned out to be 2.058. Further, the “Solubility” value in data set [2] worked out at 46 µM (≈ 84.5 µg/mL). Further, the IC50 in data set [3] (setting [4]) and in data set [3] (setting [5]) was 42 nM each time.
Regarding `CC(=O)N1CCC[C@]12CC=CCCCC1(CCCC=CCCCCCC[C@@](C)(C(=O)N[C@@H](Cc3c[nH]cn3)C(=O)N[C@@H](Cc3csc4ccccc34)C(=O)N[C@@H](CCC(N)=O)C(N)=O)NC(=O)[C@H](C)NC(=O)[C@H](Cc3ccccc3)NC(=O)[C@H](C)NC(=O)[C@H](C)NC(=O)[C@H](CC(=O)O)NC(=O)[C@H](CC(=O)O)NC1=O)NC(=O)[C@H](C)NC(=O)[C@H](CC(=O)O)NC2=O` (stereo partly drawn) [I-362, Ac-PL3-Asp-Ala-B5-Asp-Asp-Ala-Ala-Phe-Ala-S8-His-BztA-Gln-NH2], the chromatographic logD in data set [1] (pH 7.4, CHI Log D) came out at 1.44. The compound also yielded a Solubility in data set [2] (Solubility (uM)) of 47 µM (≈ 82.7 µg/mL). For the same compound, the IC50 in data set [3] (setting [4]) was 3660 nM.
Regarding `CC(=O)N1CCC[C@]12CC=CCCCC1(CCCC=CCCCCCC[C@@](C)(C(=O)N[C@@H](Cc3ccccc3)C(=O)N[C@@H](Cc3csc4ccccc34)C(=O)N[C@@H](CCC(N)=O)C(N)=O)NC(=O)[C@H](C)NC(=O)[C@H](Cc3ccccc3C)NC(=O)[C@H](C)NC(=O)[C@H](C)NC(=O)[C@H](CC(=O)O)NC(=O)[C@H](CC(=O)O)NC1=O)NC(=O)[C@H](C)NC(=O)[C@H](CC(=O)O)NC2=O` (stereo partly drawn) [I-365, Ac-PL3-Asp-Ala-B5-Asp-Asp-Ala-Ala-2MeF-Ala-S8-Phe-BztA-Gln-NH2], in data set [1] (pH 7.4), the “CHI Log D” value worked out at 2.038. Further, the “Solubility” value in data set [2] is 48 µM (≈ 85.6 µg/mL). Further, the IC50 in data set [3] (setting [4]) and in data set [3] (setting [5]) was 2720 nM each time.
In turn, `CC(=O)N1CCC[C@]12CC=CCCCC1(CCCC=CCCCCCC[C@@](C)(C(=O)N[C@@H](Cc3ccc(C)cc3)C(=O)N[C@@H](Cc3csc4ccccc34)C(=O)N[C@@H](CCC(N)=O)C(N)=O)NC(=O)[C@H](C)NC(=O)[C@H](Cc3ccccc3)NC(=O)[C@H](C)NC(=O)[C@H](C)NC(=O)[C@H](CC(=O)O)NC(=O)[C@H](CC(=O)O)NC1=O)NC(=O)[C@H](C)NC(=O)[C@H](CC(=O)O)NC2=O` (stereo partly drawn) [I-369, Ac-PL3-Asp-Ala-B5-Asp-Asp-Ala-Ala-Phe-Ala-S8-4MeF-BztA-Gln-NH2] displayed a chromatographic logD in data set [1] (pH 7.4, CHI Log D) of 1.66. Besides, the concentration in solution in data set [2] (Solubility (uM)) (Solubility) came to 40 µM (≈ 71.4 µg/mL). Also, the IC50 in data set [3] (setting [4]) stood at 2310 nM.
`CC(=O)N1CCC[C@]12CC=CCCCC1(CCCC=CCCCCCC[C@@](C)(C(=O)N[C@@H](Cc3ccccc3)C(=O)N[C@@H](Cc3csc4ccccc34)C(=O)N[C@@H](CCC(N)=O)C(N)=O)NC(=O)[C@H](C)NC(=O)[C@H](Cc3ccc4ccccc4c3)NC(=O)[C@H](C)NC(=O)[C@H](C)NC(=O)[C@H](CC(=O)O)NC(=O)[C@H](CC(=O)O)NC1=O)NC(=O)[C@H](C)NC(=O)[C@H](CC(=O)O)NC2=O` (stereo partly drawn) [I-370, Ac-PL3-Asp-Ala-B5-Asp-Asp-Ala-Ala-2NapA-Ala-S8-Phe-BztA-Gln-NH2] had a chromatographic logD in data set [1] (pH 7.4, CHI Log D) of 2.18. Further, the concentration in solution in data set [2] (Solubility (uM)) (Solubility) was 47 µM (≈ 85.5 µg/mL). Further, the IC50 in data set [3] (setting [4]) was determined as 1560 nM.
The matching figures for `CC(=O)N1CCC[C@]12CC=CCCCC1(CCCC=CCCCCCC[C@@](C)(C(=O)N[C@@H](Cc3cccc(F)c3)C(=O)N[C@@H](Cc3csc4ccccc34)C(=O)N[C@@H](CCC(N)=O)C(N)=O)NC(=O)[C@H](C)NC(=O)[C@H](Cc3ccccc3)NC(=O)[C@H](C)NC(=O)[C@H](C)NC(=O)[C@H](CC(=O)O)NC(=O)[C@H](CC(=O)O)NC1=O)NC(=O)[C@H](C)NC(=O)[C@H](CC(=O)O)NC2=O` (stereo partly drawn) [I-371, Ac-PL3-Asp-Ala-B5-Asp-Asp-Ala-Ala-Phe-Ala-S8-3FF-BztA-Gln-NH2]: 2.14, 48 µM (≈ 85.8 µg/mL) and 1390 nM.
